Test: Particle size (D90) of lemborexant active pharmaceutical ingredient by laser diffraction/scattering
Assay type: physicochemical
Conditions: for Particle size (D90 (μm)): pulverized lemborexant API lots, Table 1; for D90 (μm): after pulverization with 160UPZ (Example 1, Table 2), Microtrack MT3300EXII
Experimental: The particle size of the granular material, which is a lemborexant active pharmaceutical ingredient, can be measured by a laser diffraction/scattering method.
A sample suspension is prepared by dispersing about 30 mg of a lemborexant active pharmaceutical ingredient in 50 mL of a 0.1% polysorbate 20 aqueous solution as a dispersion solvent. The sample suspension is put into a diffractometer and an appropriate amount of dispersion solvent is added. The particle size distribution of the sample suspension is measured, and the value of the particle size of the sample is recorded as a cumulative diameter distribution.
Particle size distribution measurement conditions for the diffractometer may be as follows.
Number of measurements: 3 times
Measurement time: 30 seconds
Transparency: Transparent
Particle refractive index: 1.81
Solvent refractive index: 1.33
The 90% cumulative diameter (D90) was measured with a particle size analyzer (Microtrack MT3300EXII). A sample suspension was prepared by dispersing about 30 mg of a lemborexant active pharmaceutical ingredient in 50 mL of a dispersion solvent 0.1% polysorbate 20 aqueous solution. The sample suspension was put into a particle size analyzer, and an appropriate amount of a dispersion solvent was added thereto. The particle size distribution of the sample suspension was measured, and the value of the particle size of the sample was recorded as a cumulative diameter distribution.
The measurement conditions for the particle size analyzer are as follows.
Flow rate: 50% Number of measurements: 3 times Measurement time: 30 seconds
Particle refractive index: 1.81 Solvent refractive index: 1.33

Cc1ncc(OC[C@@]2(c3cccc(F)c3)C[C@H]2C(=O)Nc2ccc(F)cn2)c(C)n1 [Lot 1]
Particle size (D90 (μm)) (listed as 1): 47 μm

Cc1ncc(OC[C@@]2(c3cccc(F)c3)C[C@H]2C(=O)Nc2ccc(F)cn2)c(C)n1 [Lot 2]
Particle size (D90 (μm)) (listed as 2): 18 μm

Cc1ncc(OC[C@@]2(c3cccc(F)c3)C[C@H]2C(=O)Nc2ccc(F)cn2)c(C)n1 [Lot 3]
Particle size (D90 (μm)) (listed as 3): 48 μm

Cc1ncc(OC[C@@]2(c3cccc(F)c3)C[C@H]2C(=O)Nc2ccc(F)cn2)c(C)n1 [Lot 4]
Particle size (D90 (μm)) (listed as 4): 32 μm

Cc1ncc(OC[C@@]2(c3cccc(F)c3)C[C@H]2C(=O)Nc2ccc(F)cn2)c(C)n1 [Lot 5]
Particle size (D90 (μm)) (listed as 5): 39 μm

Cc1ncc(OC[C@@]2(c3cccc(F)c3)C[C@H]2C(=O)Nc2ccc(F)cn2)c(C)n1 [Lot 6]
Particle size (D90 (μm)) (listed as 6): 23 μm

Cc1ncc(OC[C@@]2(c3cccc(F)c3)C[C@H]2C(=O)Nc2ccc(F)cn2)c(C)n1 [Lot 7]
Particle size (D90 (μm)) (listed as 7): 40 μm

Cc1ncc(OC[C@@]2(c3cccc(F)c3)C[C@H]2C(=O)Nc2ccc(F)cn2)c(C)n1 [Lot 8]
Particle size (D90 (μm)) (listed as 8): 35 μm

Cc1ncc(OC[C@@]2(c3cccc(F)c3)C[C@H]2C(=O)Nc2ccc(F)cn2)c(C)n1 [Lot 9]
Particle size (D90 (μm)) (listed as 9): 34 μm

Cc1ncc(OC[C@@]2(c3cccc(F)c3)C[C@H]2C(=O)Nc2ccc(F)cn2)c(C)n1 [Lot S1]
D90 (μm) (listed as S1): 98 μm

Cc1ncc(OC[C@@]2(c3cccc(F)c3)C[C@H]2C(=O)Nc2ccc(F)cn2)c(C)n1 [Lot S2]
D90 (μm) (listed as S2): 79 μm

Cc1ncc(OC[C@@]2(c3cccc(F)c3)C[C@H]2C(=O)Nc2ccc(F)cn2)c(C)n1 [Lot S3]
D90 (μm) (listed as S3): 64 μm

Cc1ncc(OC[C@@]2(c3cccc(F)c3)C[C@H]2C(=O)Nc2ccc(F)cn2)c(C)n1 [Lot S4]
D90 (μm) (listed as S4): 56 μm

Cc1ncc(OC[C@@]2(c3cccc(F)c3)C[C@H]2C(=O)Nc2ccc(F)cn2)c(C)n1 [Lot S5]
D90 (μm) (listed as S5): 110 μm

Cc1ncc(OC[C@@]2(c3cccc(F)c3)C[C@H]2C(=O)Nc2ccc(F)cn2)c(C)n1 [Lot S6]
D90 (μm) (listed as S6): 20 μm

Cc1ncc(OC[C@@]2(c3cccc(F)c3)C[C@H]2C(=O)Nc2ccc(F)cn2)c(C)n1 [lemborexant, (1R,2S)-2-(((2,4-dimethylpyrimidine-5-yl)oxy)methyl)-2-(3-fluorophenyl)-N-(5-fluoropyridin-2-yl)cyclopropanecarboxamide]
D90 (API used for the tablets of Example 4): 32 μm

From US20230103250A1, “DRUG SUBSTANCE OF L[…] MEDICINAL COMPOSITION COMPRISING SAME” (Eisai R&D Management Co., Ltd., priority 2020, published 2023)
